Patent US20230157998A1, “Methods of Inhibiting SARS-CoV-2 Replication and Treating Corona Virus Disease 2019” (Pfizer Inc., priority 2020, published 2023)
In brackets after ≈: the same amount, converted by molar mass. Read-outs that look alike come from different tables or passages of the source.

What was measured:
NL63-CoV 3CLpro = NL63-CoV 3CLpro (Human coronavirus NL63, UniProt P0C6X5); test: FRET protease activity assay; assay type: biochemical; conditions: Alpha-CoV; [E]T 170 ± 4 nM
HKU1-CoV 3CLpro = HKU1-CoV 3CLpro (Human coronavirus HKU1, UniProt P0C6X2); test: FRET protease activity assay; assay type: biochemical; conditions: Beta-CoV; [E]T 57 ± 1 nM
Chain of HKU1-CoV 3CLpro (P0C6X2 3335-3637): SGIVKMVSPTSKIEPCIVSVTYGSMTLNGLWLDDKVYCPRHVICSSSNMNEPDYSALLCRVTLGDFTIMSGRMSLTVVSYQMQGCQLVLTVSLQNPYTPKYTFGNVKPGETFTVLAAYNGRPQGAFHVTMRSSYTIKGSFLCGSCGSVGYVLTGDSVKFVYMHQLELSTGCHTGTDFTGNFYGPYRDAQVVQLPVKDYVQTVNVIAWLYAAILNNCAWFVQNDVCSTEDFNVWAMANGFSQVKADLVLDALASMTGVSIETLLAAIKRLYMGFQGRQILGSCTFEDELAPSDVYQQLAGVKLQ

[1] = system: SARS-CoV-2 Washington strain 1; test: Cytopathic effect (CPE) assay in VeroE6-enACE2 cells; assay type: cell-based
HCOV-229E = test: Antiviral activity in MRC-5 cells; assay type: cell-based; conditions: lung cell lines (A549-ACE2 and MRC5)
SARS-CoV-2 USA-WA1/2020 = test: microbe, parasite or virus in culture; assay type: cell-based
SARS-CoV-2 [2] = test: Efficacious target concentration and human dose projection; conditions: across a range of in vitro antiviral assays
[3] = 48 h
[4] = Ethanol […] v/v, 2 mg/mL at preparation
VeroE6-enACE2 cells = conditions: African green monkey
[5] = system: SARS-CoV-2 (USA_WA1/2020); conditions: for synergy score: isobologram level 0.9
cytochrome P450 enzymes = conditions: human, microsomes
CYP3A4/5 = conditions: microsomes
[6] = human
physchem [7] = conditions: 4 °C, thermodynamic from solid
physchem [8] = conditions: 25 °C, pH 5, aqueous buffer, thermodynamic from solid, Saturated solubility for PF-00835231 at 25° C.
physchem [9] = conditions: 25 °C, pH 5, aqueous buffer, thermodynamic from solid, PF-00835321 Saturated Solubility
physchem [10] = conditions: 25 °C, organic solvent or mixture, thermodynamic from solid
physchem [11] = conditions: organic solvent or mixture, thermodynamic from solid
in vitro = conditions: human
[12] = Cytotoxicity in MRC-5 cells; conditions: human
MRC-5 cells = test: Cytotoxicity in MRC-5 cells; conditions: read-out: CC50 μM GeoMean; MRC-5, Efflux Inhibitor 0.5 μM
[13] = Intravenous pharmacokinetics; conditions: rat, dog, monkey, in vivo, 2 mg/kg
SARS-CoV-2 [14] = test: microbe, parasite or virus in culture
[15] = Plasma protein binding by equilibrium dialysis
[16] = Assay over 7 days, 80 mg/mL SBE-β-CD with PEG400/ethanol (F10); conditions: ~3:1 PEG400:ethanol (1.5-6.0% v/v), 2, 4, 6 and 8 mg/mL PF-00835231, ambient
[17] = Assay of CD/co-solvent/water formulations of different compositions over 5 days (F8); conditions: all formulations of Formulation Table F11

Chain of NL63-CoV 3CLpro (P0C6X5 2940-3242): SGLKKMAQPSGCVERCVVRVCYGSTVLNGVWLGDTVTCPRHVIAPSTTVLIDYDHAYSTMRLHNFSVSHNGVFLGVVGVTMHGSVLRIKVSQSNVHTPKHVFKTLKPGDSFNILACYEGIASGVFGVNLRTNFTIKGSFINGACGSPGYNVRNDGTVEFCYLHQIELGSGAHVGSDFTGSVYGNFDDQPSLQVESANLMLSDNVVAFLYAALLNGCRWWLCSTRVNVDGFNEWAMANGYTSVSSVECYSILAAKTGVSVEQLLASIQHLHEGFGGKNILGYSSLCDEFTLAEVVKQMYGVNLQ

Which Ki (NL63-CoV 3CLpro) does the source give for COc1cccc2[nH]c(C(=O)N[C@@H](CC(C)C)C(=O)N[C@@H](C[C@@H]3CCNC3=O)C(=O)CO)cc12 [PF-00835231] here?
Its Ki is 0.8 ± 0.5 nM.

And the Ki (HKU1-CoV 3CLpro)?
Its Ki is 0.9 ± 0.2 nM.

What about the EC50 ([1]; Severe acute respiratory syndrome coronavirus 2, VeroE6-enACE2 cells, in the presence of the P-gp inhibitor, quoted for the EC50/EC90 difference, read-out: EC50) of the same compound?
The EC50 was 0.48 µM.

And the EC90 ([1]; Severe acute respiratory syndrome coronavirus 2, Vero-cell lines, P-gp inhibitor added)?
The EC90 was 480 to 1600 nM.

What about the “difference between EC50 and EC90” value ([1]; both Vero cell types) of the same compound?
Its value is 2-3 fold.

What about the EC50 ([1]; read-out: EC50 μM GeoMean) of the same compound?
Its EC50 is 0.23 µM.

What about the “difference in antiviral potency in the presence and absence of P-gp inhibitor” value (HCOV-229E) of the same compound?
Its value is “no significant difference in antiviral potency”.

And the “SARS-CoV-2 viral infectious titers in apical washes” value (SARS-CoV-2 USA-WA1/2020; 10 μM doses)?
The value was “viral titers below the limit of 366 detection at most time points”.

And the “SARS-CoV-2 viral infectious titers in apical washes” value (SARS-CoV-2 USA-WA1/2020; 0.025, 0.5 or 10 μM in basolateral chamber, washes at 12-hour increments)?
Its value is “potently inhibit SARS-CoV-2 titers in a dose-dependent manner”.

What about the EC90 (SARS-CoV-2 USA-WA1/2020; Severe acute respiratory syndrome coronavirus 2, primary human airway epithelial model, antiviral time course, preliminary data, read-out: unbound EC90) of the same compound?
Its EC90 is less than 500 nM.

What about the “Hill coefficient (m), slope of the dose response curve” value (SARS-CoV-2 [2]) of the same compound?
Its value is 3.

What about the “PF-00835321 Solubility” value [3] of the same compound?
The value was greater than 45000 µg/mL.

What about the “PF-00835231 Assay” value ([4]; HP-β-CD 0 mg/mL, order: PF-00835231, Ethanol, Buffer) of the same compound?
The value was 0.4 mg/mL.

And the “PF-00835231 Assay” value ([4]; HP-β-CD 15 mg/mL, order: PF-00835231, Ethanol, HP-β-CD with buffer)?
Its value is 1.9 mg/mL.

And the “PF-00835231 Assay” value ([4]; HP-β-CD 15 mg/mL, order: PF-00835231, HP-β-CD with buffer, Ethanol)?
Its value is 0.4 mg/mL.

And the CC50 (VeroE6-enACE2 cells)?
Its CC50 is greater than 100000 nM.

What about the “cytotoxicity of the combinations” value [5] of the same compound?
The value was “no significant cytotoxicity”.

And the synergy score ([5]; combination with azithromycin)?
Its synergy score is 3.76.

And the synergy score ([5]; combination with remdesivir)?
The synergy score was 5.1.

What about the “unbound CIint” value (cytochrome P450 enzymes) of the same compound?
Its value is 14 µL/min/mg.

What about the “time dependent inhibition of CYP3A4/5” value (CYP3A4/5) of the same compound?
The value was “weak signal”.

What about the predicted half-life [6] of the same compound?
The predicted half-life was “approximately 2 h”.

What about the “predicted plasma clearance (CLp)” value [6] of the same compound?
Its value is roughly 6 mL/min/kg.

And the solubility at 48 h (physchem [7]; pH 3, aqueous buffer)?
Its solubility at 48 h is 100 µg/mL (≈ 212 µM).

What about the solubility at 48 h (physchem [7]; pH 5, aqueous buffer) of the same compound?
The solubility at 48 h was 100 µg/mL (≈ 212 µM).

And the solubility at 48 h (physchem [7]; pH 7, aqueous buffer)?
Its solubility at 48 h is 100 µg/mL (≈ 212 µM).

What about the solubility at 25 h (physchem [8]) of the same compound?
Its solubility at 25 h is 200 µg/mL (≈ 423 µM).

And the solubility at 48 h (physchem [9])?
Its solubility at 48 h is 200 µg/mL (≈ 423 µM).

What about the solubility at 48 h (physchem [10]) of the same compound?
Its solubility at 48 h is greater than 45000 µg/mL.

And the solubility (physchem [11])?
The solubility was no less than 200000 µg/mL.

And the CC50 (in vitro)?
The CC50 was greater than 10000 nM.

And the CC50 [12]?
Its CC50 is greater than 100000 nM.

And the CC50 (MRC-5 cells)?
The CC50 was greater than 100 µM.

And the half-life [13]?
The half-life was less than 1.5 h.

What about the EC90 (SARS-CoV-2 [14]; Severe acute respiratory syndrome coronavirus 2, HeLa-ACE2, HELA-ACE2, remdesivir concentration 0) of the same compound?
Its EC90 is 433 nM.

And the EC90 (SARS-CoV-2 [14]; Severe acute respiratory syndrome coronavirus 2, HeLa-ACE2, HELA-ACE2, remdesivir concentration 48 (nm in FIG. 5A legend))?
Its EC90 is 123 nM.

And the EC90 (SARS-CoV-2 [14]; Severe acute respiratory syndrome coronavirus 2, HeLa-ACE2, HELA-ACE2, remdesivir concentration 95 (nm in FIG. 5A legend))?
Its EC90 is 54.5 nM.

And the EC90 (SARS-CoV-2 [14]; Severe acute respiratory syndrome coronavirus 2, HeLa-ACE2, HELA-ACE2, remdesivir concentration 190 (nm in FIG. 5A legend))?
The EC90 was less than 0.78 nM.

And the fraction unbound [15]?
The fraction unbound was 0.26 to 0.46.

And the “assay values of filtered formulations over 7 days (FIG. 12)” value [16]?
The value was “do not change over 7 days”.

What about the “appearance of solutions after 5 days mixing at 25° C.” value [17] of the same compound?
Its value is “remained clear”.
